Data reported in US10196363B2, “Dihydropyrimidin-2-one compounds and medical use thereof” (JAPAN TOBACCO INC., priority 2014, dated 2019).
Structures can show the parent of a compound that is named as a salt.

Assays:
mouse RORγ = molecular target: T1, mouse RORγ (Mus musculus, UniProt P51450); assay: In vitro assay of inhibitory effect against RORγ transcriptional activity (GAL4-mRORγ LBD luciferase reporter gene assay in CHO cells); format: cell-based; conditions: for EC50: GAL4-mRORγ LBD luciferase reporter, CHO cells, read-out: LUC EC50 mRORγ
T1 construct: mouse RORγ, from Ile251 to Lys516; expressed in transfected cells; host or cells: CHO cells (Chinese hamster ovary), transient co-transfection with pG5-Luc
T1 sequence (P51450 251-516): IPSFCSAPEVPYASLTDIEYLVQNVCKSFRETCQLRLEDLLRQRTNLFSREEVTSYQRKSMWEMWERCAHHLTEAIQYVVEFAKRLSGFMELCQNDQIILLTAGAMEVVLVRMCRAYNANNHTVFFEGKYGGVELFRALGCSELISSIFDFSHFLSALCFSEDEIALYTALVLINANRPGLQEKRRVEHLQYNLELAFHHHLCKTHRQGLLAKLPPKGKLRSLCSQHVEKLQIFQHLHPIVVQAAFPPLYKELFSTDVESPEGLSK
Method in brief: (§1)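 GAL4-DBD fused to RORγ LBD (human Ser253–Lys518; mouse Ile251–Lys516) was transiently co-transfected with GAL4-driven pG5-Luc firefly luciferase into CHO cells. Cells were treated with 8 concentrations of compound (0.2% DMSO) for 2 days at 37 °C, then luminescence was read. EC50 was fitted from %-of-vehicle control.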

human RORγ = molecular target: T2, human RORγ (Homo sapiens, UniProt P51449); assay: In vitro assay of inhibitory effect against RORγ transcriptional activity (GAL4-hRORγ LBD luciferase reporter gene assay in CHO cells); format: cell-based; conditions: for EC50: GAL4-hRORγ LBD luciferase reporter, CHO cells, read-out: LUC EC50 hRORγ; for hRORγ luciferase activity, %-of-control: value in parentheses beside the EC50 bound, vehicle-control 0.2% DMSO alone = 100%
T2 construct: human RORγ, from Ser253 to Lys518; expressed in transfected cells; host or cells: CHO cells (Chinese hamster ovary), transient co-transfection with pG5-Luc
T2 sequence (P51449 253-518): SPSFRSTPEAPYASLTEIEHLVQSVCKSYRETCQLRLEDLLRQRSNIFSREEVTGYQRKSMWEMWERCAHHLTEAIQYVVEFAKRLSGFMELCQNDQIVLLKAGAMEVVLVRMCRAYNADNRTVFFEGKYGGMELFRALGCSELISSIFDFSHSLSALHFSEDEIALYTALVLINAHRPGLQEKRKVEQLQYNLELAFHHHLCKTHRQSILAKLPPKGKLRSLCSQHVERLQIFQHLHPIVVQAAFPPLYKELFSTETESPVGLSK
Method in brief: as §1

EC50 (mouse RORγ) [nM] | mRORγ luciferase activity, %-of-control (mouse RORγ; value in parentheses beside the EC50 bound, vehicle-control 0.2% DMSO alone = 100%) | EC50 (human RORγ) [nM] | hRORγ luciferase activity, %-of-control (human RORγ) | SMILES
> 20000 | (100%) | > 20000 | (90%) | CC(C)C1=CN(CCC(=O)O)C(=O)N[C@@]1(C)c1ccc(CCC(C)(C)C(=O)O)c(Cl)c1 [Example 261]
22 |  | 22 |  | CC(C)C1=CN([C@H]2CC[C@H](CC(=O)O)CC2)C(=O)N[C@@]1(C)c1ccc(CCC(C)(C)C)c(Cl)c1 [Example 262]
18 |  | 26 |  | CC(C)C1=CN(CCC(=O)O)C(=O)N[C@@]1(C)c1ccc(CC2CCCC2)c(Cl)c1 [Example 263]
71 |  | 37 |  | CC(C)(C)CCc1ccc([C@]2(C)NC(=O)N(CCC(=O)O)C=C2c2ccccc2)cc1Cl [Example 265]
17 |  | 12 |  | Cc1cc(N2C=C(C(C)C)[C@](C)(c3ccc(CCC(C)(C)C)c(Cl)c3)NC2=O)ccc1C(=O)O [Example 266]
33 |  | 30 |  | CC(C)C1=CN(CCC(=O)O)C(=O)N[C@@]1(C)c1ccc(C=C2CCCCC2)c(Cl)c1 [Example 267]
14 |  | 15 |  | CC(C)C1=CN(CCC(=O)O)C(=O)N[C@@]1(C)c1ccc(CC2CCCCC2)c(Cl)c1 [Example 268]
23 |  | 19 |  | CC(C)C1=CN(C23CCC(C(=O)O)(CC2)C3)C(=O)N[C@@]1(C)c1ccc(CCC(C)(C)C)c(Cl)c1 [Example 269]
26 |  | 52 |  | CC(C)C1=CN(CCC(=O)O)C(=O)N[C@@]1(C)c1ccc(CCC(C)(C)C)c(C(F)(F)F)c1 [Example 270]
47 |  | 43 |  | CC(C)C1=CN(c2ccc(C(=O)O)cc2)C(=O)N[C@@]1(C)c1ccc(CCC(C)(C)C)c(C(F)(F)F)c1 [Example 271, 4-{(S)-4-[4-(3,3-Dimethyl-butyl)-3-trifluoromethyl-phenyl]-5-isopropyl-4-methyl-2-oxo-3,4-dihydro-2H-pyrimidin-1-yl}-benzoic Acid]
36 |  | 17 |  | CC(C)C1=CN(C23CCC(C(=O)O)(C2)C3)C(=O)N[C@@]1(C)c1ccc(CCC(C)(C)C)c(Cl)c1 [Example 272]
75 |  | 25 |  | COCCN1C=C(c2cccc(C(=O)O)c2)[C@](C)(c2ccc(CCC(C)(C)C)c(Cl)c2)NC1=O [Example 273]
8 |  | 8 |  | COCCC1=CN(C23CCC(C(=O)O)(C2)C3)C(=O)N[C@@]1(C)c1ccc(CCC(C)(C)C)c(Cl)c1 [Example 274]
1210 |  | 542 |  | COCCN1C=C(c2cncc(C(=O)O)c2)[C@](C)(c2ccc(CCC(C)(C)C)c(Cl)c2)NC1=O [Example 275]
21 |  | 14 |  | CC(C)C1=CN(c2ccc(C(=O)O)cn2)C(=O)N[C@@]1(C)c1ccc(CCC(C)(C)C)c(Cl)c1 [Example 281, 6-{(S)-4-[3-Chloro-4-(3,3-dimethyl-butyl)-phenyl]-5-isopropyl-4-methyl-2-oxo-3,4-dihydro-2H-pyrimidin-1-yl}-nicotinic Acid hydrochloride]
187 |  | 378 |  | CC(C)C1=CN(CCC(=O)O)C(=O)N[C@@]1(C)c1ccc(CC2CC(F)(F)C2)c(Cl)c1 [Example 282]
28 |  | 18 |  | CC(C)C1=CN(c2ccc(C(=O)O)c(C(F)(F)F)c2)C(=O)N[C@@]1(C)c1ccc(CCC(C)(C)C)c(Cl)c1 [Example 283]
1500 |  | 2780 |  | CC(C)(C)CCc1ccc([C@]2(C)NC(=O)N(CCC(=O)O)C=C2C2CC(C)(C)OC(C)(C)C2)cc1Cl [Example 284]
30 |  | 1350 |  | CC(C)C1=CN(CCC(=O)O)C(=O)N[C@@]1(C)c1ccc(C=C2CCC(C)(C)CC2)c(Cl)c1 [Example 285]
38 |  | 270 |  | CC(C)C1=CN(CCC(=O)O)C(=O)N[C@@]1(C)c1ccc(CC2CCC(C)(C)CC2)c(Cl)c1 [Example 286]
917 |  | 1490 |  | CC(C)C1=CN(CCC(=O)O)C(=O)N[C@@]1(C)c1ccc(C=C2CCC2)c(Cl)c1 [Example 288]
773 |  | 1120 |  | CC(C)C1=CN(CCC(=O)O)C(=O)N[C@@]1(C)c1ccc(C=C2CCOCC2)c(Cl)c1 [Example 289]
259 |  | 463 |  | CC(C)C1=CN(CCC(=O)O)C(=O)N[C@@]1(C)c1ccc(CC2CCOCC2)c(Cl)c1 [Example 290]
138 |  | 1080 |  | CC(C)C1=CN(CCC(=O)O)C(=O)N[C@@]1(C)c1ccc(CC2CCC2)c(Cl)c1 [Example 291]

EC50 (mouse RORγ) [nM] | mRORγ luciferase activity, %-of-control (mouse RORγ; value in parentheses beside the EC50 bound, vehicle-control 0.2% DMSO alone = 100%) | EC50 (human RORγ) [nM] | hRORγ luciferase activity, %-of-control (human RORγ) | SMILES
73 |  | 89 |  | C=C(C)C1=CN(CCC(=O)O)C(=O)N[C@@]1(C)c1ccc(CCC(C)(C)C)c(Cl)c1 [Example 292]
1020 |  | 1100 |  | CC(C)C1=CN(CCC(=O)O)C(=O)N[C@@]1(C)c1ccc(CCC(C)(C)O)c(Cl)c1 [Example 293]
34 |  | 68 |  | CC(C)C1=CN(CCC(=O)O)C(=O)N[C@@]1(C)c1ccc(CCC(C)(C)F)c(Cl)c1 [Example 294]
366 |  | 134 |  | CC(C)C1=CN(c2cc(C(=O)O)on2)C(=O)N[C@@]1(C)c1ccc(CCC(C)(C)C)c(Cl)c1 [Example 295]
4530 |  | 3720 |  | COCCN1C=C(c2cnn(C(C)(C)C(=O)O)c2)[C@](C)(c2ccc(CCC(C)(C)C)c(Cl)c2)NC1=O [Example 296]
61 |  | 44 |  | CC(C)C1=CN(c2cc(C(=O)O)nn2C)C(=O)N[C@@]1(C)c1ccc(CCC(C)(C)C)c(Cl)c1 [Example 297]
18 |  | 22 |  | CC(C)C1=CN(CCC(=O)O)C(=O)N[C@@]1(C)c1ccc(C2CC(C)(C)C2)c(Cl)c1 [Example 298]
10 |  | 27 |  | CC(C)C1=CN(CCC(=O)O)C(=O)N[C@@]1(C)c1ccc(CCC2(F)CCCC2)c(Cl)c1 [Example 301]
30 |  | 28 |  | CC(C)C1=CN(CCC(=O)O)C(=O)N[C@@]1(C)c1ccc([C@H]2C[C@@H](C(C)(C)C)C2)c(Cl)c1 [Example 302]
1310 |  | 1400 |  | CC(C)(C)CCc1ccc([C@]2(C)NC(=O)N(CCC(=O)O)C=C2CCS(C)(=O)=O)cc1Cl [Example 303]
19 |  | 21 |  | COC(C)CC1=CN(CCC(=O)O)C(=O)N[C@@]1(C)c1ccc([C@H]2C[C@@H](C(C)(C)C)C2)c(Cl)c1 (stereo partly shown) [Example 304]
71 |  | > 3200 | (63%) | CC(C)C1=CN(CCC(=O)O)C(=O)N[C@@]1(C)c1ccc([C@H]2C[C@@H](CC(C)(C)C)C2)c(Cl)c1 [Example 309]
366 |  | 260 |  | CC(C)(C)CCc1ccc([C@]2(C)NC(=O)N(c3ccc(C(=O)O)cc3)C=C2CCCOC(C)(C)C)cc1Cl [Example 313]
32 |  | 38 |  | CC(C)C1=CN(C23CCC(C(=O)O)(C2)C3)C(=O)N[C@@]1(C)c1ccc(CCC(C)(C)C)c(C(F)(F)F)c1 [Example 314]
19 |  | 13 |  | COCCC1=CN(c2ccc(C(=O)O)cc2)C(=O)N[C@@]1(C)c1ccc([C@H]2C[C@@H](C(C)(C)C)C2)c(Cl)c1 [Example 315]
19 |  | 18 |  | CC(C)(C)CCc1ccc([C@]2(C)NC(=O)N(C34CC(C(=O)O)(C3)C4)C=C2C2CC(F)(F)C2)cc1Cl [Example 316]
24 |  | 40 |  | CC(C)C1=CN(CCC(=O)O)C(=O)N[C@@]1(C)c1ccc(C#CC(C)(C)C)c(Cl)c1 [Example 317]
14 |  | 17 |  | COCCC1=CN(c2ccc(C(=O)O)cc2)C(=O)N[C@@]1(C)c1ccc([C@H]2C[C@@H](C(C)C)C2)c(Cl)c1 [Example 318]
14 |  | 13 |  | CC(C)(C)CCc1ccc([C@]2(C)NC(=O)N(CCC(=O)O)C=C2C2CC(F)(F)C2)cc1Cl [Example 319]
27 |  | 23 |  | CC(C)(C)CCc1ccc([C@]2(C)NC(=O)N(c3ccc(C(=O)O)cn3)C=C2C2CC(F)(F)C2)cc1Cl [Example 320]
48 |  | 60 |  | CC1(C)CC=C(c2ccc([C@]3(C)NC(=O)N(CCC(=O)O)C=C3C3CC3)cc2Cl)CC1 [Example 321]
19 |  | 21 |  | CC(C)C1=CN(C23CC(C(=O)O)(C2)C3)C(=O)N[C@@]1(C)c1ccc(CCC(C)(C)C)c(C(F)(F)F)c1 [Example 322]
23 |  | 51 |  | COCCC1=CN(c2ccc(C(=O)O)cc2)C(=O)N[C@@]1(C)c1ccc(CCC(C)(C)C)c(C(F)(F)F)c1 [Example 323]
